In the NIST ThermoML archive (doi:10.1016/j.jct.2009.07.005):

Legend:
[1] = xn = mol fraction of the nth substance listed; details: 101 kPa, Liquid, Small sample (50 mg) DSC
[2] = molar heat capacity at constant pressure; xn = mol fraction of the nth substance listed; details: 101 kPa, Liquid, Small sample (50 mg) DSC
[3] = molar heat capacity at constant pressure; details: 101.33 kPa, Liquid, Small sample (50 mg) DSC

C1CNCCN1 [piperazine] + CN(CCO)CCO
Details | excess molar heat capacity, x1 = 0.1 [J/K/mol] | excess molar heat capacity, x1 = 0.2 [J/K/mol] | excess molar heat capacity, x1 = 0.3 [J/K/mol] | excess molar heat capacity, x1 = 0.4 [J/K/mol] | molar heat capacity at constant pressure, x1 = 0.1 [J/K/mol] | molar heat capacity at constant pressure, x1 = 0.2 [J/K/mol] | molar heat capacity at constant pressure, x1 = 0.3 [J/K/mol] | molar heat capacity at constant pressure, x1 = 0.4 [J/K/mol]
[1], 303.2 K | 2.3 | 3.92 | 5.4 | 6.21 | – | – | – | –
[1], 308.2 K | 2.46 | 4.22 | 5.73 | 6.61 | – | – | – | –
[1], 313.2 K | 2.63 | 4.52 | 6.06 | 7.01 | – | – | – | –
[1], 318.2 K | 2.79 | 4.82 | 6.4 | 7.41 | – | – | – | –
[1], 323.2 K | 2.97 | 5.11 | 6.74 | 7.82 | – | – | – | –
[1], 328.2 K | 3.12 | 5.51 | 7.06 | 8.22 | – | – | – | –
[1], 333.2 K | 3.29 | 5.82 | 7.41 | 8.62 | – | – | – | –
[1], 338.2 K | 3.46 | 6.1 | 7.73 | 9.02 | – | – | – | –
[1], 343.2 K | 3.63 | 6.4 | 8.06 | 9.42 | – | – | – | –
[1], 348.2 K | 3.79 | 6.7 | 8.39 | 9.83 | – | – | – | –
[1], 353.2 K | 3.95 | 6.99 | 8.72 | 10.23 | – | – | – | –
[2], 303.2 K | – | – | – | – | 264.4 | 256.6 | 248.7 | 240.1
[2], 308.2 K | – | – | – | – | 267.7 | 260 | 252 | 243.3
[2], 313.2 K | – | – | – | – | 271.1 | 263.3 | 255.2 | 246.6
[2], 318.2 K | – | – | – | – | 274.4 | 266.7 | 258.5 | 249.8
[2], 323.2 K | – | – | – | – | 277.7 | 270 | 261.8 | 253
[2], 328.2 K | – | – | – | – | 281 | 273.5 | 265.1 | 256.3
[2], 333.2 K | – | – | – | – | 284.4 | 276.8 | 268.4 | 259.5
[2], 338.2 K | – | – | – | – | 287.7 | 280.2 | 271.6 | 262.7
[2], 343.2 K | – | – | – | – | 291.1 | 283.5 | 274.9 | 266
[2], 348.2 K | – | – | – | – | 294.4 | 286.9 | 278.2 | 269.2
[2], 353.2 K | – | – | – | – | 297.7 | 290.2 | 281.4 | 272.4

C1CNCCN1 [piperazine] + O
Details | excess molar heat capacity, x1 = 0.05 [J/K/mol] | excess molar heat capacity, x1 = 0.1 [J/K/mol] | excess molar heat capacity, x1 = 0.15 [J/K/mol] | excess molar heat capacity, x1 = 0.2 [J/K/mol] | molar heat capacity at constant pressure, x1 = 0.05 [J/K/mol] | molar heat capacity at constant pressure, x1 = 0.1 [J/K/mol] | molar heat capacity at constant pressure, x1 = 0.15 [J/K/mol] | molar heat capacity at constant pressure, x1 = 0.2 [J/K/mol]
[1], 303.2 K | 2.16 | 3.88 | 5.53 | 7.95 | – | – | – | –
[1], 308.2 K | 2.37 | 4.28 | 6.13 | 8.65 | – | – | – | –
[1], 313.2 K | 2.58 | 4.68 | 6.73 | 9.35 | – | – | – | –
[1], 318.2 K | 2.78 | 5.08 | 7.33 | 10.05 | – | – | – | –
[1], 323.2 K | 2.99 | 5.58 | 7.93 | 10.75 | – | – | – | –
[1], 328.2 K | 3.2 | 5.98 | 8.53 | 11.45 | – | – | – | –
[1], 333.2 K | 3.41 | 6.38 | 9.03 | 12.25 | – | – | – | –
[1], 338.2 K | 3.62 | 6.78 | 9.53 | 12.95 | – | – | – | –
[1], 343.2 K | 3.83 | 7.18 | 10.13 | 13.65 | – | – | – | –
[1], 348.2 K | 4.04 | 7.58 | 10.63 | 14.35 | – | – | – | –
[1], 353.2 K | 4.25 | 7.98 | 11.23 | 15.05 | – | – | – | –
[2], 303.2 K | – | – | – | – | 82.5 | 89.4 | 96.1 | 103.7
[2], 308.2 K | – | – | – | – | 82.8 | 90 | 97 | 104.8
[2], 313.2 K | – | – | – | – | 83.2 | 90.6 | 98 | 105.9
[2], 318.2 K | – | – | – | – | 83.5 | 91.2 | 98.9 | 107.1
[2], 323.2 K | – | – | – | – | 83.8 | 92 | 99.9 | 108.2
[2], 328.2 K | – | – | – | – | 84.2 | 92.6 | 100.8 | 109.4
[2], 333.2 K | – | – | – | – | 84.5 | 93.3 | 101.7 | 110.6
[2], 338.2 K | – | – | – | – | 84.9 | 93.9 | 102.5 | 111.8
[2], 343.2 K | – | – | – | – | 85.3 | 94.6 | 103.5 | 113
[2], 348.2 K | – | – | – | – | 85.6 | 95.2 | 104.4 | 114.1
[2], 353.2 K | – | – | – | – | 86 | 95.9 | 105.3 | 115.3

C1CNCCN1 [piperazine]
[3]
Details | molar heat capacity at constant pressure [J/K/mol]
393.2 K | 216.3
398.2 K | 218.7
403.2 K | 220.5
408.2 K | 222.8
413.2 K | 225
